Results on 6 compounds are retold here after EP4810494A1, “HPK1 DEGRADATION AGENT AND USE THEREOF IN FIELD OF MEDICINE” (Haisco Pharmaceutical Group Co., Ltd., priority 2023, dated 2025).

The structures appear in SMILES notation. Counter-ions that a name gives are not always drawn.

The target in data set [1] is T1, HPK1 kinase (Homo sapiens, UniProt Q92918).
T1 construct: purchased Carna 07-410
T1 sequence (Q92918 1-346 limits assumed): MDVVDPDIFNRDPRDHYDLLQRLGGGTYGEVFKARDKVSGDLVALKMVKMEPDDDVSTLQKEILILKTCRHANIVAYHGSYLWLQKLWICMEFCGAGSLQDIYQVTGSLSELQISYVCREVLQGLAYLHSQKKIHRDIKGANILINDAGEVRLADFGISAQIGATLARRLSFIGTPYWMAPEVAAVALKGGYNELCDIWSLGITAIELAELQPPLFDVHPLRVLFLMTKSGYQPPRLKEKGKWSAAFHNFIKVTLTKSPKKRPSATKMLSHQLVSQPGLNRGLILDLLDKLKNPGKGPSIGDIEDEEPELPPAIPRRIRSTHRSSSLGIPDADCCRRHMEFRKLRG
In words: HPK1 kinase assay (Km concentration ATP). The class given is biochemical. Conditions: for IC50: ATP at Km concentration (working concentration: 9 µM); for inhibitory activity against HPK1 kinase (in words): Km concentration ATP, conclusion. On the procedure: Test example 3: HPK1 kinase assay (Km concentration ATP)
The kinase HPK1 (Carna, Cat.No 07-410) was prepared into 2× kinase solution using 1× kinase buffer. The substrate Fluorescein-PKC (Invitrogen, Cat. No. PV3506) and ATP (working concentration: 9 µM) (Sigma, Cat. No. 2383-5G) were prepared into 2× substrate solution using 1×kinase buffer. The detection reagent was diluted to 2-fold the final concentration using an antibody diluent. 100 nL of compounds at different concentrations and 5 µL of kinase solution were added to each well of a 384-well plate, and the mixture was incubated at room temperature for 10 minutes. After the incubation was completed, 5 µL of substrate solution was added to each well, and the resulting mixture was reacted at room temperature for 90 minutes. After the reaction was completed, 10 µL of detection reagent was added to each well to terminate the reaction, and the mixture was incubated at room temperature for 60 minutes. Fluorescence readings were detected using an Envision instrument with excitation at 320 nm and emission at 520 nm and 495 nm. IC50 value was calculated using XLFit excel add-in version 5.4.0.8 software. The calculation formula of the inhibition rate was shown in formula 3-1, where max is the Ratio of the DMSO control, min is the Ratio of the negative control without enzyme, and sample is the Ratio of the compound. Ratio = RFU520nm /RFU495nm [formula] Inhibition% = (max−sample)/(max−min) × 100% [formula] Table 3-1 Inhibitory activity of test compounds against HPK1 kinase

In data set [2] the target is T2, HPK1 protein (Homo sapiens, UniProt Q92918).
T2 construct: host or cells: Jurkat cells
The data set can be described thus: Detection of HPK1 protein expression level in Jurkat cells (24 h). The class given is cell-based. The conditions noted are these: 24 hours incubation. On the procedure:
Test example 4: Detection of HPK1 protein expression level in Jurkat cells (24 h)
Jurkat cells from ATCC were placed in a RPMI-1640 complete medium (supplemented with 10% FBS and 1% penicillin-streptomycin solution) and cultured at 37°C and 5% CO2. The cells in the logarithmic growth phase were collected, the cell density was adjusted to 5 × 10^5 cells/well with the culture medium, and the cells were added to a 6-well cell culture plate at a volume of 1 mL/well. The compound to be tested was prepared to 2-fold the final concentration, 1 mL of the compounds at different concentrations were added to administration wells, a medium containing 0.2% DMSO was added to control wells, and the plate was incubated at 37°C and 5% CO2 for 24 hours. The cells were collected into a 1.5 mL centrifuge tube, 30 µL of RIPA lysis buffer (containing 1X protease inhibitor cocktail) was added, and the cells were lysed on ice for 15 minutes and centrifuged at 12000 rpm/min at 4°C for 10 minutes. The supernatant was collected and the protein content was determined using the BCA method. The protein sample to be tested was diluted to 0.2 mg/mL, HPK1 was detected using a fully automated protein expression quantitative analyser (ProteinSimple), and the internal reference protein was β-actin (all antibodies were from CST). The software (Compass for SW) of the fully automated protein expression quantitative analyser was used to process the raw data and calculate the peak area after internal reference normalisation and the HPK1 degradation rate relative to the control group. The HPK1 degradation rate was calculated according to formula 4-1, where Aadministration well is the relative peak area of the administration group after internal reference normalisation, and Acontrol well is the relative peak area of the vehicle control group after internal reference normalisation. DC50 values were calculated using a four-parameter non-linear fitting model in Graphpad 8.3.0 software. HPK1_degradation % = 100−(Aadministration well/Acontrol well×100%) [formula] Table 4-1 Degradation activity of test compounds against HPK1 protein in Jurkat cells (24 h)

Data set [3] is described as follows: Pharmacokinetic test in mice. The class given is in vivo, ICR mice. Conditions: mouse, plasma, po, i. g., 10 mg/kg. An outline of the steps:
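Male ICR mice (20-35 g), fasted overnight and fed 4 h post-dose, received a single intravenous or intragastric dose. Orbital blood into EDTA-K2 tubes at 0–24 h; plasma quantified by LC-MS/MS to derive PK parameters and bioavailability.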

Data set [4] relates to IL-2 secretion by T cells. In words: IL-2 detection assay in cells (ELISA, pan-T cells isolated from PBMCs). The class given is cell-based. Conditions: IL-2, CD3 antibody-coated plate, 24 hours. On the procedure: 9. IL-2 detection assay in cells
Activating effect of compounds on IL-2 secretion by T cells was evaluated using the ELISA method. Frozen PBMCs were thawed, and pan-T cells were isolated and purified using a T cell sorting kit (Stemcell, 17951). The cells were resuspended in 1640 complete medium and incubated in a 37°C&5%CO2 incubator overnight. A 96-well plate coated with an anti-human CD3 antibody (Thermo, 16-0037-38) at a final concentration of 5 µg/mL was incubated at 37°C for 2 h. The overnight-cultured cells were collected by centrifugation, the supernatant was discarded, and the cells were resuspended in 1640 complete medium, and seeded in the CD3 antibody-coated 96-well plate at a density of 10^5cells/well. The compounds at different concentrations were added, and the mixture was incubated in a 37°C&5%CO2 incubator for 24 hours. After the incubation was completed, the resulting mixture was centrifuged at 1000 rpm for 1 minute to collect the supernatant, and IL-2 was detected according to the ELISA instructions. DMSO without compounds was used as the control group to calculate the activation rate of the compounds, and prism was used to fit the activation curve. Maximum activation fold = maximum activation rate/control group. Table 9-1 Results of IL-2 activation by test compounds
On the technique in general: An ELISA detects its analyte on a solid surface through an enzyme-linked reagent.

Data set [5] is described as follows: Pharmacokinetic test in rats. The format is in vivo, SD rats. The conditions noted are these: rat, plasma. On the procedure: Test example 7: Pharmacokinetic test in rats
Experimental animals: Male SD rats, 180-200 g, purchased from Chengdu Dossy Experimental Animals Co., Ltd. with the laboratory animal production license number of SCXK (CHUAN) 2020-030.
Experimental design: on the day of the experiment, the SD rats were randomly grouped according to their body weights. The animals were fasted but with water available overnight before the administration, and fed 4 h after the administration.
Vehicle for intragastric administration: 5% Solutol+5% TPGS+30% PEG400+60% (20% SBE-β-CD)
Blood was taken from the orbits of the […] at specified time points, and placed in an EDTAK2 centrifuge tube. Centrifugation was performed at 5000 rpm for 10 min, and the plasma was collected.
Blood sampling time points for the intravenous administration group were: 0, 5 min, 15 min, 30 min, 1 h, 2 h, 4 h, 6 h, 8 h and 24 h; blood sampling time points for the intragastric administration group were: 0, 5 min, 15 min, 30 min, 1 h, 2 h, 4 h, 6 h, 8 h and 24 h. Before analysis and detection, all the samples were stored at - 60°C or lower. The samples were analysed quantitatively by LC-MS/MS. Table 7-1 PK data of test compound drug in rats

T2 sequence (Q92918 whole entry): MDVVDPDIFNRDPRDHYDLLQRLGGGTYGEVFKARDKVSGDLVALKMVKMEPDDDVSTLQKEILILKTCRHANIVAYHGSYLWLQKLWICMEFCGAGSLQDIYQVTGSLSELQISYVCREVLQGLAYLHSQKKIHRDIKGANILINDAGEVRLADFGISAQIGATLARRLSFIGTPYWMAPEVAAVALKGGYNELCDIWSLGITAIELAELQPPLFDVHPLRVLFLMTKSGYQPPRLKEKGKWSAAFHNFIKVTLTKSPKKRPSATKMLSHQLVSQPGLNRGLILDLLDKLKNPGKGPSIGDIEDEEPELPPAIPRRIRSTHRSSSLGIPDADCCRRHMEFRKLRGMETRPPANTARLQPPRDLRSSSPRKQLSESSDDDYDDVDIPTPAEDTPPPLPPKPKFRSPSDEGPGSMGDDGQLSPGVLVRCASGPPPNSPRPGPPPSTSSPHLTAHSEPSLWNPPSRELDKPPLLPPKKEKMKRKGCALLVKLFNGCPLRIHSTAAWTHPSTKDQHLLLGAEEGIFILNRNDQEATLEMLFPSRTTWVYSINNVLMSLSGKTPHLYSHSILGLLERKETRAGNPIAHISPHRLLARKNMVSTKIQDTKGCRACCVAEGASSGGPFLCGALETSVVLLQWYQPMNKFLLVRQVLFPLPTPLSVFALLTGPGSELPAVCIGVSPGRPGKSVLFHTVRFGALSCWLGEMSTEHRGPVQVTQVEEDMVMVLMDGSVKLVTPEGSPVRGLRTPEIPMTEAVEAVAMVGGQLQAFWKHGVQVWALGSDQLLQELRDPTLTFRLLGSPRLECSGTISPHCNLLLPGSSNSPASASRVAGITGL

What is called IC50 is the concentration needed to halve the response being measured. Read a high IC50 as a need for much substance. One may read the AUC as concentration integrated over time. What is called Cmax is the maximum level reached in the sampled fluid or tissue. The half-life is how long it takes for the measured level to halve. A low value points to rapid decline. For `O=C1CCC(c2cc3c(cc2F)N2CCN(CC4CCN(c5ccc(Nc6ccc(-c7cnc8cc(F)ccn78)c7c6C(=O)NC7)nc5)CC4)C[C@@H]2CC3)C(=O)N1` (stereo partly shown) [Trifluoroacetic acid salt of compound 4], in data set [1], the IC50 is less than 10 nM and the “inhibitory activity against HPK1 kinase (in words)” value (“inhibitory activity” below) is recorded as “good inhibitory activity”. For the same compound, the DC50 in data set [2] was less than 20 nM. In data set [3], this compound showed an AUC of 15200 ng·h/mL, a Cmax of 1140 ng/mL and a half-life of 7.27 h.

For the compound `O=C1CCN(c2cc3c(cc2F)N2CCN(CC4CCN(c5ccc(Nc6ccc(-c7cnc8cc(F)ccn78)c7c6C(=O)NC7)nc5)CC4)C[C@@H]2CC3)C(=O)N1` [Compound 5], in data set [1], the IC50 is less than 10 nM and the “inhibitory activity” value is given as “good inhibitory activity”. Moreover, the DC50 in data set [2] is less than 20 nM. In data set [3], this compound had an AUC of 20000 ng·h/mL, a Cmax of 1380 ng/mL and a half-life of 6.45 h.

For `O=C1CCN(c2ccc(N3CCN(CC4CCN(c5ccc(Nc6ccc(-c7cnc8cc(F)ccn78)c7c6C(=O)NC7)nc5)CC4)CC3)cc2F)C(=O)N1` [Trifluoroacetic acid salt of compound 2], in data set [1], the half-inhibitory concentration (IC50) was less than 10 nM and the “inhibitory activity” value was “good inhibitory activity”. In addition, the DC50 in data set [2] was less than 20 nM. In data set [3], this compound showed an AUC of 16800 ng·h/mL, a Cmax of 1280 ng/mL and a half-life of 5.79 h.

A word on the clearance: it is a measure of how efficiently the substance is removed, as volume per time. Low values mean inefficient removal, high ones efficient removal. With `O=C1CCN(c2cc3c(cc2F)N2CCN(CC4CCN(c5ccc(Nc6ccc(-c7cnc8cc(F)ccn78)c7c6C(=O)NC7)nc5)CC4)C[C@H]2CC3)C(=O)N1` [Trifluoroacetic acid salt of compound 6], the “Activation fold at 100 nM concentration” value in data set [4] (100 nM) is recorded as more than 10. In data set [4] (maximum activation rate/control group), this compound returned a Maximum activation fold of more than 10. For the same compound, in data set [1], the IC50 was less than 10 nM and the “inhibitory activity” value is “good inhibitory activity”. Further, the DC50 in data set [2] was less than 20 nM. In data set [3], this compound showed an AUC of 20800 ng·h/mL, a peak concentration (Cmax) of 1520 ng/mL and a half-life of 5.35 h. Moreover, in data set [5] (IV, 2.5 mg/kg), the clearance stood at 9.78 mL/min/kg and the half-life was 6.58 h. In data set [5] (po, i. g., 10 mg/kg), this compound had an AUC of 8360 ng·h/mL, a Cmax of 721 ng/mL and a half-life of 6.4 h.

For `O=C1CCC(c2ccc(N3CCN(CC4CCN(c5ccc(Nc6ccc(-c7cnc8cc(F)ccn78)c7c6C(=O)NC7)nc5)CC4)CC3)cc2F)C(=O)N1` (racemic) [Trifluoroacetic acid salt of compound 1], in data set [1], the IC50 was less than 10 nM and the “inhibitory activity” value is reported as “good inhibitory activity”. The DC50 in data set [2] is less than 20 nM. In data set [3], this compound showed an AUC of 14700 ng·h/mL, a Cmax of 1070 ng/mL and a half-life of 6.73 h.

With `O=C1CCC(c2cc3c(cc2F)N2CCN(CC4CCN(c5ccc(Nc6ccc(-c7cnc8cc(F)ccn78)c7c6C(=O)NC7)nc5)CC4)C[C@H]2CC3)C(=O)N1` (stereo partly shown) [Trifluoroacetic acid salt of compound 3], in data set [1], the IC50 was less than 10 nM and the “inhibitory activity” value is on record as “good inhibitory activity”. In data set [2], the DC50 is less than 20 nM.
